Columns and labels:
Assay type in all cases: functional
[1] = biological target: Human immunodeficiency virus type 1 reverse transcriptase (Human immunodeficiency virus 1) (UniProt Q72547); assay: Rate of incorporation into a DNA primer directed by a DNA template at the active site of HIV-1 reverse transcriptase
[2] = biological target: Human immunodeficiency virus type 1 reverse transcriptase (Human immunodeficiency virus 1, UniProt Q72547); assay: Equilibrium binding constant at the active site of HIV-1 reverse transcriptase
[3] = biological target: Human immunodeficiency virus type 1 reverse transcriptase (Human immunodeficiency virus 1) (UniProt Q72547); assay: Efficiency of incorporation into a DNA primer directed by a DNA template at the active site of HIV-1 reverse transcriptase

Row | Kpol [1] [s⁻¹] | Kd [2] [µM] | Efficiency [3] [µM⁻¹ s⁻¹] | SMILES
1 | 0.019 | 15 | 0.0013 | Nc1ccn([C@@H]2CS[C@H](COP(=O)(O)OP(=O)(O)OP(=O)(O)O)O2)c(=O)n1 [LAMIVUDINE TRIPHOSPHATE]
2 | 0.039 | 12 | 0.0033 | Nc1nc(=O)n([C@@H]2CS[C@H](COP(=O)(O)OP(=O)(O)OP(=O)(O)O)O2)cc1F [EMTRICITABINE 5'-TRIPHOSPHATE]
3 | 0.15 | 64 | 0.0023 | Nc1nc(=O)n([C@H]2O[C@@H](COP(=O)(O)OP(=O)(O)OP(=O)(O)O)C=C2F)cc1F
4 | 0.95 | 31 | 0.031 | Nc1nc(=O)n([C@@H]2C=C[C@H](COP(=O)(O)OP(=O)(O)OP(=O)(O)O)O2)cc1F
5 | 0.16 | 18 | 0.0086 | Nc1ccn([C@@H]2C=C[C@H](COP(=O)(O)OP(=O)(O)OP(=O)(O)O)O2)c(=O)n1
